Drawing on PubChem BioAssay (NCI), this text covers GI50 and TGI for four compounds.

Molecules are shown by their SMILES. Where “and” joins values, the source holds several entries; their conditions need not be identical. Equal entries are not always repeated.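 The compound was tested at five concentrations on cells cultured in 96-well plates, with a 48-hour exposure period. Abbreviation: GI50, concentration required for 50% inhibition of growth. TGI denotes the concentration required for complete inhibition of growth.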

What all share (test): NCI tumour cell line growth inhibition, 48 h
Test [1] has as its system MCF7 breast.
For test [2], the system named is HCT-116 colon.
Test [3] deals with K-562 leukemia.
Test [4] has as its system IGROV1 ovarian.
In test [5] the test system is LOX IMVI melanoma.
Test [6] deals with RXF 393 renal.
Test [7] concerns HCT-15 colon.
Test [8] relates to KM12 colon.
Test [9] deals with OVCAR-4 ovarian.
The test system of test [10] is HCC-2998 colon.

Take `CC(=O)OC[C@]12CC[C@@H](C(=O)CBr)[C@@H]1[C@H]1CC[C@@H]3[C@@]4(C)CCCNC(C)(C)[C@@H]4CC[C@@]3(C)[C@]1(C)CC2`: the GI50 in test [1] was 2.27 µM; in [2], 1.84 µM; in test [3], 2.61 µM; in [4], 1.83 µM; in test [5] it was 1.76 µM; in test [6] it was 1.83 µM. Moreover, the GI50 in [7] was 1.65 µM; in test [8] it was 11.8 µM; in [9], 3.89 µM; in test [10] it was 11.5 µM. Besides, the TGI in test [1] was 6.21 µM; in test [2] it was 3.61 µM; in test [3] it was 8.33 µM; in [4], 3.76 µM; in test [5] it was 3.31 µM; in test [6], 3.64 µM. Besides, the TGI in [7] turned out to be 3.52 µM; in [8], 27.3 µM; in test [9] it was 18.9 µM; in [10] it was 26.1 µM.

`COc1cc(NC(C)CCCN)c2ncccc2c1` (stereo not drawn): the TGI is 31.5 µM in test [1]; more than 100 µM in test [2]; more than 100 µM in [3]; more than 100 µM in test [4]; more than 100 µM in test [5]; > 79.6 µM and 100 µM in test [6]. The TGI in test [7] is more than 100 µM; in test [8], more than 100 µM; in test [9] it was more than 100 µM; in [10] it was 31.6 µM and 58.5 µM. In addition, the GI50 in test [2] is 34.6 µM and 75.8 µM; in test [6], 17.1 µM and 37.4 µM; in [7], 41.9 µM and 98.4 µM.

Regarding `O=C(O)C1OC1(c1cccc(Cl)c1)c1ccccc1Cl` (stereo not drawn), the TGI in test [1] is more than 100 µM; in test [2], 43.7 µM; in [3], 87.6 µM; in test [4] it was more than 100 µM; in test [5] it was 44 µM; in test [6] it was 82.1 µM. The TGI in test [7] was 22.9 µM; in test [8], more than 100 µM; in test [9], more than 100 µM; in test [10], more than 100 µM.

As for `O=c1oc(Cl)c(Cl)c2ccccc12`, the GI50 in test [1] was 35.5 µM; in test [2], 31.9 µM; in [3], 27.2 µM; in test [4], 23.2 µM; in [5], 17.6 µM; in [6], 24.8 µM. Besides, the GI50 in test [7] was 23.1 µM; in test [8], 35.8 µM; in test [9] it was 30 µM; in [10], 44.3 µM. Moreover, the TGI in test [1] was more than 100 µM; in [2], 71.8 µM; in test [3], 70.5 µM; in test [4], 63.2 µM; in test [5] it was 51.9 µM; in test [6], 52.2 µM. The TGI was 61.3 µM in [7], more than 100 µM in test [8], more than 100 µM in test [9] and 73.9 µM in test [10].
